Assay results taken from PubChem BioAssay (NCI).
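Compound exposure: 48 hours, 5 concentrations, 96-well plates. Here, GI50 denotes the concentration required for 50% inhibition of growth. TGI marks complete inhibition of growth.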

Experiments:
Assay in all cases: inhibition of tumour cell growth, NCI panel, 48 h
NCI-H522 lung = test system: NCI-H522 lung
OVCAR-5 ovarian = test system: OVCAR-5 ovarian
SK-OV-3 ovarian = test system: SK-OV-3 ovarian
OVCAR-3 ovarian = test system: OVCAR-3 ovarian
UACC-62 melanoma = test system: UACC-62 melanoma
SK-MEL-2 melanoma = test system: SK-MEL-2 melanoma
OVCAR-4 ovarian = test system: OVCAR-4 ovarian
EKVX NSCLC = test system: EKVX NSCLC
COLO 205 colon = test system: COLO 205 colon
SK-MEL-28 melanoma = test system: SK-MEL-28 melanoma

| SMILES | GI50 (NCI-H522 lung) | TGI (NCI-H522 lung) | GI50 (OVCAR-5 ovarian) | TGI (OVCAR-5 ovarian) | GI50 (SK-OV-3 ovarian) | TGI (SK-OV-3 ovarian) | GI50 (OVCAR-3 ovarian) | TGI (OVCAR-3 ovarian) | GI50 (UACC-62 melanoma) | TGI (UACC-62 melanoma) | GI50 (SK-MEL-2 melanoma) | TGI (SK-MEL-2 melanoma) | GI50 (OVCAR-4 ovarian) | TGI (OVCAR-4 ovarian) | GI50 (EKVX NSCLC) | TGI (EKVX NSCLC) | GI50 (COLO 205 colon) | TGI (COLO 205 colon) | GI50 (SK-MEL-28 melanoma) | TGI (SK-MEL-28 melanoma) |
| --- | --- | --- | --- | --- | --- | --- | --- | --- | --- | --- | --- | --- | --- | --- | --- | --- | --- | --- | --- | --- |
| COc1ccc(-c2csc(NC(=O)CSc3nc(C)c(-c4ccccc4)n3Nc3ccccc3)n2)cc1 | 3.35 µM | > 100 µM | > 100 µM | > 100 µM | > 100 µM | > 100 µM | 9.61 µM | > 100 µM | 7.35 µM | > 100 µM | 9.52 µM | > 100 µM | 8.24 µM | > 100 µM | 3.8 µM | > 100 µM | 9.7 µM | > 100 µM | > 100 µM | > 100 µM |
| CCCCN(CCCC)C(=C(C(Cl)=C(Cl)Cl)[N+](=O)[O-])N(CCCC)CCCC | – | > 100 µM | – | > 100 µM | – | > 100 µM | – | > 100 µM | – | > 100 µM | – | > 100 µM | – | > 100 µM | – | > 100 µM | – | > 100 µM | – | > 100 µM |
| CCCCC#CS(=O)(=O)C(F)(F)F | – | > 100 µM | – | > 100 µM | – | > 100 µM | – | > 100 µM | – | 99.6 µM | – | > 100 µM | – | 98.9 µM | – | > 100 µM | – | > 100 µM | – | > 100 µM |
| O=C(CNCc1ccccc1)Oc1c(Cl)c(Cl)c(Cl)c(Cl)c1Cl | – | 75.9 µM | – | > 100 µM | – | > 100 µM | – | 62.9 µM | – | 51.5 µM | – | 92 µM | – | > 100 µM | – | 48.7 µM | – | 85.9 µM | – | > 100 µM |
| COc1ccc2c(c1)CCN=C2c1ccccc1CCCCl | – | 52.5 µM | – | > 100 µM | – | > 100 µM | – | > 100 µM | – | > 100 µM | – | > 100 µM | – | 52.2 µM | – | > 100 µM | – | 23.4 µM | – | > 100 µM |
| Cc1cn2c(C)csc2c1P(=O)(OC(C)C)OC(C)C | – | > 100 µM | – | > 100 µM | – | > 100 µM | – | > 100 µM | – | > 100 µM | – | > 100 µM | – | > 100 µM | – | > 100 µM | – | > 100 µM | – | > 100 µM |
| CC12CC1C(c1cccc([N+](=O)[O-])c1)(c1cccc([N+](=O)[O-])c1)N=N2 (stereo not given) | – | 23.2 µM | – | > 100 µM | – | > 100 µM | – | > 100 µM | – | 44.1 µM | – | > 100 µM | – | 80.3 µM | – | > 100 µM | – | 41.5 µM | – | > 100 µM |
| C=C(C)[C@@]1(O[Si](C)(C)C)CCCC[C@@H]1CC(Sc1ccccc1)Sc1ccccc1 | – | 20.4 µM | – | 30.3 µM | – | 39.7 µM | – | 27.7 µM | – | 26.9 µM | – | 31 µM | – | 26.2 µM | – | 32.1 µM | – | 38.9 µM | – | 37 µM |
| C=C1C(=O)OC2/C=C(/C)C3(O)OC(C)(CC(OC(=O)C(C)C)C12)CC3OC(C)=O (stereo not given) | – | 6.25 µM | – | 65.9 µM | – | 26.1 µM | – | 29.8 µM | – | 31.6 µM | – | 49.7 µM | – | > 65.5 µM | – | 46.5 µM | – | 18.1 µM | – | > 53 µM |
| O=C(O)c1ccc2c(c1)CC1(C2)Cc2cc3c(cc2C1=O)CCC3 (stereo not given) | – | > 100 µM | – | > 100 µM | – | > 100 µM | – | > 100 µM | – | > 100 µM | – | > 100 µM | – | > 100 µM | – | > 100 µM | – | > 100 µM | – | > 100 µM |
| COC(=O)C1(Cc2ccc3c(c2)CCC3)Cc2ccccc2C1=O (stereo not given) | – | 31.5 µM | – | > 100 µM | – | 85.8 µM | – | > 100 µM | – | > 100 µM | – | 38.7 µM | – | > 100 µM | – | 73.7 µM | – | 30.4 µM | – | 40.3 µM |
| Cc1ccc(S(=O)(=O)NC(=O)NNc2ccc(F)cc2)cc1 | – | > 100 µM | – | > 100 µM | – | > 100 µM | – | > 100 µM | – | > 100 µM | – | > 100 µM | – | > 100 µM | – | > 100 µM | – | > 100 µM | – | > 100 µM |
| CCOC(=O)C(C)c1nc2c(Cl)c3ncccc3cc2[nH]c1=O (stereo not given) | – | > 100 µM | – | > 100 µM | – | > 100 µM | – | > 100 µM | – | > 100 µM | – | > 100 µM | – | > 100 µM | – | > 100 µM | – | > 100 µM | – | > 100 µM |
| COC(=O)C1(Cc2ccc3c(c2)CCC3)Cc2cc3c(cc2C1)CCC3 | – | 56.5 µM | – | > 100 µM | – | > 100 µM | – | > 100 µM | – | > 100 µM | – | 49.3 µM | – | 89.3 µM | – | > 100 µM | – | > 100 µM | – | > 100 µM |
| COc1ccc(N=C2C(=S)N(c3ccc(OC)cc3)/C(=N/S(=O)(=O)c3ccccc3)N2c2ccccc2)cc1 | – | 4.24 µM | – | 32 µM | – | > 55.4 µM | – | 18.1 µM | – | 16.2 µM | – | 25.5 µM | – | 22.4 µM | – | 31.8 µM | – | 24.8 µM | – | 29.7 µM |
| Cn1ccnc1Sc1ccc(C=Nc2ccc3nc(SCC(=O)NC4CCCCC4)sc3c2)cc1[N+](=O)[O-] | – | > 100 µM | – | > 100 µM | – | 58.4 µM | – | > 100 µM | – | > 100 µM | – | 54.1 µM | – | > 100 µM | – | > 100 µM | – | > 100 µM | – | > 100 µM |
| O=C(CCc1cccc(O)c1)NCCCNC(=O)CCc1cccc(O)c1 | – | > 100 µM | – | > 100 µM | – | > 100 µM | – | > 100 µM | – | > 100 µM | – | > 100 µM | – | > 100 µM | – | > 100 µM | – | > 100 µM | – | > 100 µM |
| N#CC(=N)c1ncn(-c2ccccc2N)c1N | – | > 100 µM | – | > 100 µM | – | > 100 µM | – | > 100 µM | – | > 100 µM | – | > 100 µM | – | > 100 µM | – | > 100 µM | – | > 100 µM | – | > 100 µM |
